SMILES strings stand for the structures.

In the assay the test system is HCV 1b genotype replicon. The experiment in a line: HCV replicon assay (qRT-PCR or luciferase), genotype 1b. It is filed as cell-based. The following applies: Hepatitis C virus, read-out: Genotype-1b replicon EC50 Range. From the text: HCV replicon cell lines (kindly provided by R. Bartenschlager) isolated from colonies as described by Lohman et. al. (Lohman et al. (1999) Science 285: 110-113, expressly incorporated by reference in its entirety) and used for all experiments. The HCV replicon has the nucleic acid sequence set forth in EMBL Accession No.: AJ242651, the coding sequence of which is from nucleotides 1801 to 8406.
The coding sequence of the published HCV replicon was synthesized and subsequently assembled in a modified plasmid pBR322 (Promega, Madison, Wis.) using standard molecular biology techniques. One replicon cell line (“SGR 11-7”) stably expresses HCV replicon RNA which consists of (i) the HCV 5′UTR fused to the first 12 amino acids of the capsid protein, (ii) the neomycin phosphotransferase gene (neo), (iii) the IRES from encephalomyocarditis virus (EMCV), and (iv) HCV NS2 to NS5B genes and the HCV 3′UTR. Another replicon cell line (“Huh-luc/neo-ET”) described by Vrolijk et. al. (Vrolijk et. al. (2003) Journal of Virological Methods 110:201-209, expressly incorporated by reference in its entirety) stably expresses HCV replicon RNA which consists of (i) the HCV 5′UTR fused to the first 12 amino acids of the capsid protein, (ii) the firefly luciferase reporter gene, (iii) the ubiquitin gene, (iv) the neomycin phosphotransferase gene (neo), (v) the IRES from encephalomyocarditis virus (EMCV), and (vi) HCV NS3 to NS5B genes that harbor cell culture adaptive mutations (E1202G, T12801, K1846T) and the HCV 3′UTR.
These cell lines were maintained at 37° C., 5% CO2, 100% relative humidity in DMEM (Cat#11965-084, Invitrogen), with 10% fetal calf serum (“FCS”, Invitrogen), 1% non-essential amino acids (Invitrogen), 1% of Glutamax (Invitrogen), 1% of 100× penicillin/streptomycin (Cat#15140-122, Invitrogen) and Geneticin (Cat#10131-027, Invitrogen) at 0.75 mg/ml or 0.5 mg/ml for 11-7 and Huh-luc/neo-ET cells, respectively.
EC50 values of single agent compounds and combinations were determined by HCV RNA detection using quantitative RT-PCR, according to the manufacturer's instructions, with a TAQMAN® One-Step RT-PCR Master Mix Reagents Kit (Cat# AB 4309169, Applied Biosystems) on an ABI Model 7500 thermocycler. The TaqMan primers used for detecting and quantifying HCV RNA were obtained from Integrated DNA Technologies. HCV RNA was normalized to GAPDH RNA levels in drug-treated cells, which was detected and quantified using the Human GAPDH Endogenous Control Mix (Applied Biosystems, AB 4310884E). Total cellular RNA was purified from 96-well plates using the RNAqueous 96 kit (Ambion, Cat#AM1812). Chemical agent cytotoxicity was evaluated using an MTS assay according to the manufacturer's directions (Promega).
Since clinical drug resistance often develops in viral infections following single agent therapies, there is a need to assess the additive, antagonistic, or synergistic properties of combination therapies. We use the HCV replicon system to assess the potential use of the compound of the present invention or in combination therapies with Interferon alpha, cyclosporine analogs and inhibitors targeting other HCV proteins. The acute effects of a single or combinations of drugs are studied in the “Huh-luc/neo-ET” replicon with each chemical agent titrated in an X or Y direction in a 6 point two-fold dilution curve centered around the EC50 of each drug. Briefly, replicon cells are seeded at 7,000 cells per well in 90 ul DMEM (without phenol red, Invitrogen Cat.#31053-036) per well with 10% FCS, 1% non-essential amino acids, 1% of Glutamax and 1% of 100× penicillin/streptomycin and incubated overnight at 37° C., 5% CO2, 100% relative humidity. […]
In general terms: A replicon is a self-replicating genome or part of one, used to study replication in cells.
Turning to `COC(=O)N[C@H](C(=O)N1CCC[C@H]1CNc1ncc(C#Cc2ccc(-c3cnc([C@@H]4CCCN4C(=O)[C@@H](NC(=O)OC)C(C)C)[nH]3)cc2)cn1)C(C)C` [Example 394], the EC50 (as a rule, the concentration that produces a half-maximal response) was above 10 nM.
For the compound `CCC(CNc1ncc(-c2ccc3cc(-c4c[nH]c([C@@H]5CCCN5C(=O)[C@@H](NC(=O)OC)C(C)C)n4)ccc3c2)cn1)NC(=O)[C@@H](NC(=O)OC)C(C)C` (stereo partly shown) [Example 388], the EC50 is above 10 nM.
Turning to `COC(=O)N[C@H](C(=O)N1CCC[C@H]1CNc1nc2ccc(-c3ccc(-c4c[nH]c([C@@H]5CCCN5C(=O)[C@@H](NC(=O)OC)C(C)C)n4)cc3)cc2s1)C(C)C` [Example 305], the EC50 was below 1 nM.
Regarding `COC(=O)N[C@H](C(=O)N1CCC[C@H]1CNc1ncc2cc(-c3ccc(-c4c[nH]c([C@@H]5CCCN5C(=O)[C@@H](NC(=O)OC)C(C)C)n4)cc3)ccc2n1)C(C)C` [Example 294], the EC50 is below 1 nM.
Then `CCC(CNc1ncc(-c2ccc3cc(-c4c[nH]c([C@@H]5CCCN5C(=O)[C@@H](NC(=O)OC)C(C)C)n4)ccc3c2)cn1)N(C)C(=O)[C@@H](NC(=O)OC)C(C)C` (stereo partly shown) [Example 390], with 1 to 10 nM; and `COC(=O)N[C@H](C(=O)N1CCC[C@H]1CNc1ncc2cc(C#Cc3ccc4[nH]c([C@@H]5CCCN5C(=O)[C@@H](NC(=O)OC)C(C)C)nc4c3)ccc2n1)C(C)C` [Example 322], with 1 to 10 nM; and `COC(=O)N[C@H](C(=O)N1CCC[C@@H]1CNc1ncc(-c2ccc3cc(-c4cnc([C@@H]5CCCN5C(=O)[C@@H](NC(=O)OC)C(C)C)[nH]4)ccc3c2)cn1)C(C)C` [Example 393], with 1 to 10 nM.
For the compound `COC(=O)N[C@H](C(=O)N1CCC[C@H]1CNc1ccc(-c2ccc3cc(-c4c[nH]c([C@@H]5CCCN5C(=O)[C@@H](NC(=O)OC)C(C)C)n4)ccc3c2)cn1)C(C)C` [Example 296], the EC50 was below 1 nM.
For the compound `COC(=O)N[C@H](C(=O)N1CCC(Nc2ncc(-c3ccc(-c4c[nH]c([C@@H]5CCCN5C(=O)[C@@H](NC(=O)OC)C(C)C)n4)cc3)cn2)C1)C(C)C` (stereo partly shown) [Example 384], the EC50 was 1 to 10 nM.
Consider `COC(=O)N[C@H](C(=O)N[C@H]1CCC[C@@H]1Nc1ncc(-c2ccc3cc(-c4c[nH]c([C@@H]5CCCN5C(=O)[C@@H](NC(=O)OC)C(C)C)n4)ccc3c2)cn1)C(C)C` (racemic) [373a and 373b], for which the EC50 was below 1 nM.
On to `COC(=O)N[C@H](C(=O)N1CCC(Nc2ncc(-c3ccc4cc(-c5c[nH]c([C@@H]6CCCN6C(=O)[C@@H](NC(=O)OC)C(C)C)n5)ccc4c3)cn2)C1)C(C)C` (stereo partly shown) [Example 382], for which the EC50 fell in the range of 1 to 10 nM.
`COC(=O)N[C@H](C(=O)N1CCC[C@H]1CNc1nc2ccc(-c3ccc4cc(-c5c[nH]c([C@@H]6CCCN6C(=O)[C@@H](NC(=O)OC)C(C)C)n5)ccc4c3)cc2s1)C(C)C` [Example 386]: the EC50 was below 1 nM.
Then `COC(=O)N[C@H](C(=O)N1CCC[C@H]1CNc1nc2ccc(-c3ccc4nc(NC[C@@H]5CCCN5C(=O)[C@@H](NC(=O)OC)C(C)C)sc4c3)cc2s1)C(C)C` [Example 377], with above 10 nM.
As for `COC(=O)N[C@H](C(=O)N1CCC[C@H]1CNc1ncc(-c2ccc(-c3cnc(NC[C@@H]4CCCN4C(=O)[C@@H](NC(=O)OC)C(C)C)nc3)cc2)cn1)C(C)C` [Example 370], the EC50 was above 10 nM.
With `COC(=O)N[C@H](C(=O)N1CCC[C@H]1CNc1ncc(C#Cc2ccc3nc([C@@H]4CCCN4C(=O)[C@@H](NC(=O)OC)C(C)C)[nH]c3c2)cn1)C(C)C` [Example 313], the EC50 is above 10 nM.
For `COC(=O)N[C@H](C(=O)N1CCC[C@H]1CNc1ncc(-c2ccc3cc(-c4c[nH]c([C@@H]5CCCN5C(=O)[C@@H](NC(=O)OC)C(C)C)n4)ccc3c2)cn1)C(C)C` [Example 83], the EC50 is above 10 nM.
